The subject of one series is HT-29 tumors. Put plainly: Antitumor efficacy in nude mice bearing HT-29 tumors. It counts as in vivo. As to conditions: 66.7 mg/kg i.v. on days 1, 5, 9.
Another series relates to healthy mice. As to conditions: dose used is near the reported MTD; cited from earlier work.
A further series deals with HCT-116 tumors. Put plainly: Antitumor efficacy in nude mice bearing HCT-116 tumors. As to conditions: 66.7 mg/kg i.v. on days 1, 5, 9; n = 5. In kind it is in vivo.
The test system of the next series is HT-29 colon cancer cells. Put plainly: In vitro cytotoxicity, HT-29 colon cancer cells. In kind it is cell-based. The following applies: Homo sapiens, HT-29, 72 h.
The subject of series [1] is HCT-116 colon cancer cells. Put plainly: In vitro cytotoxicity, HCT-116 colon cancer cells. As to conditions: Homo sapiens, HCT-116, 72 h.

Regarding `CCc1c2c(nc3ccc(OC(=O)N4CCC(N5CCCCC5)CC4)cc13)-c1cc3c(c(=O)n1C2)COC(=O)[C@]3(O)CC` [irinotecan], the median survival with HT-29 tumors (n = 5 (TT 1 study)) is recorded as 33 days; in the series on HT-29 tumors (n = 7 (TT 7E study)), 41 days; in the series with HCT-116 tumors, 23 days. Besides, the “reported maximum tolerated dose (MTD)” value in the series on healthy mice is reported as around 66.7 mg/kg.

Consider `CC[C@@]1(O)C(=O)OCc2c1cc1n(c2=O)Cc2cc3ccccc3nc2-1` [CPT, camptothecin], for which the IC50 in the series on HT-29 colon cancer cells came out at 64 nM; in series [1] it was 40 nM.
